# In the supplement of paper PMC10307832:
# Assays:
# Assay in all cases: relative viability (nuclei count vs DMSO), 5 days (fraction); higher = more cells survive
# NCI-H23 = tested on: NCI-H23
# Method in brief: (§1)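 Values are medians from duplicate plates. Each reflects relative viability, defined as the nuclei count of treated wells over that of vehicle wells. Lung cancer cell lines in 1536-well plates were pin-tool dosed one day after seeding with one drug alone or with a fixed anchor-drug dose plus five library-drug doses (not always all listed) in √10 steps, then fixed, stained and imaged at 4× after 5 days.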
# NCI-H1793 = tested on: NCI-H1793
# Method in brief: as §1
# LCLC-103H = tested on: LCLC-103H
# Method in brief: as §1
# NCI-H2347 = tested on: NCI-H2347
# Method in brief: as §1
# PC-3 [JPC-3] = tested on: PC-3 [JPC-3]
# Method in brief: as §1
# NCI-H727 = tested on: NCI-H727
# Method in brief: as §1
# NCI-H2228 = tested on: NCI-H2228
# Method in brief: as §1
# SW 1573 = tested on: SW 1573
# Method in brief: as §1
# LCLC-97TM1 = tested on: LCLC-97TM1
# Method in brief: as §1
# NCI-H1650 = tested on: NCI-H1650
# Method in brief: as §1
# 201T = tested on: 201T
# Method in brief: as §1
# HCC-44 = tested on: HCC-44
# Method in brief: as §1
# LU99A = tested on: LU99A
# Method in brief: as §1
# A-427 = tested on: A-427
# Method in brief: as §1
# NCI-H596 = tested on: NCI-H596
# Method in brief: as §1
# PC-14 = tested on: PC-14
# Method in brief: as §1
# SW 900 = tested on: SW 900
# Method in brief: as §1
# COR-L23 = tested on: COR-L23
# Method in brief: as §1
# LC-2-ad = tested on: LC-2-ad
# Method in brief: as §1
# LK-2 = tested on: LK-2
# Method in brief: as §1
# H3255 = tested on: H3255
# Method in brief: as §1
# NCI-H460 = tested on: NCI-H460
# Method in brief: as §1
structure (smiles),measurement,setting,value
O=c1cc(N2CCOCC2)oc2c(-c3cccc4c3sc3ccccc34)cccc12 + CC(=O)Nc1cccc(-n2c(=O)n(C3CC3)c(=O)c3c(Nc4ccc(I)cc4F)n(C)c(=O)c(C)c32)c1 [Trametinib] (partner 0.02 µM),relative viability,NCI-H23; first compound 0.01 µM,0.351
same,relative viability,NCI-H23; first compound 0.03162 µM,0.375
same,relative viability,NCI-H23; first compound 0.3162 µM,0.359
same,relative viability,NCI-H23; first compound 1 µM,0.347
same,relative viability,NCI-H1793; first compound 0.01 µM,0.372
same,relative viability,NCI-H1793; first compound 0.03162 µM,0.411
same,relative viability,NCI-H1793; first compound 0.1 µM,0.504
same,relative viability,NCI-H1793; first compound 0.3162 µM,0.406
same,relative viability,NCI-H1793; first compound 1 µM,0.38
same,relative viability,LCLC-103H; first compound 0.01 µM,0.712
same,relative viability,LCLC-103H; first compound 0.03162 µM,0.698
same,relative viability,LCLC-103H; first compound 0.1 µM,0.678
same,relative viability,LCLC-103H; first compound 0.3162 µM,0.652
same,relative viability,LCLC-103H; first compound 1 µM,0.663
same,relative viability,NCI-H2347; first compound 0.01 µM,0.263
same,relative viability,NCI-H2347; first compound 0.03162 µM,0.287
same,relative viability,NCI-H2347; first compound 0.1 µM,0.269
same,relative viability,NCI-H2347; first compound 0.3162 µM,0.309
same,relative viability,NCI-H2347; first compound 1 µM,0.229
same,relative viability,PC-3 [JPC-3]; first compound 0.01 µM,0.623
same,relative viability,PC-3 [JPC-3]; first compound 0.03162 µM,0.675
same,relative viability,PC-3 [JPC-3]; first compound 0.1 µM,0.649
same,relative viability,PC-3 [JPC-3]; first compound 0.3162 µM,0.729
same,relative viability,PC-3 [JPC-3]; first compound 1 µM,0.655
same,relative viability,NCI-H727; first compound 0.01 µM,0.38
same,relative viability,NCI-H727; first compound 0.03162 µM,0.372
same,relative viability,NCI-H727; first compound 0.1 µM,0.389
same,relative viability,NCI-H727; first compound 0.3162 µM,0.391
same,relative viability,NCI-H727; first compound 1 µM,0.37
same,relative viability,NCI-H2228; first compound 0.01 µM,0.723
same,relative viability,NCI-H2228; first compound 0.03162 µM,0.424
same,relative viability,NCI-H2228; first compound 0.1 µM,0.43
same,relative viability,NCI-H2228; first compound 0.3162 µM,0.557
same,relative viability,NCI-H2228; first compound 1 µM,0.534
same,relative viability,SW 1573; first compound 0.01 µM,0.501
same,relative viability,SW 1573; first compound 0.03162 µM,0.594
same,relative viability,SW 1573; first compound 0.1 µM,0.585
same,relative viability,SW 1573; first compound 0.3162 µM,0.603
same,relative viability,SW 1573; first compound 1 µM,0.501
same,relative viability,LCLC-97TM1; first compound 0.01 µM,0.197
same,relative viability,LCLC-97TM1; first compound 0.03162 µM,0.161
same,relative viability,LCLC-97TM1; first compound 0.1 µM,0.173
same,relative viability,LCLC-97TM1; first compound 0.3162 µM,0.173
same,relative viability,LCLC-97TM1; first compound 1 µM,0.193
same,relative viability,NCI-H1650; first compound 0.01 µM,0.526
same,relative viability,NCI-H1650; first compound 0.03162 µM,0.643
same,relative viability,NCI-H1650; first compound 0.1 µM,0.782
same,relative viability,NCI-H1650; first compound 0.3162 µM,0.571
same,relative viability,NCI-H1650; first compound 1 µM,0.517
same,relative viability,201T; first compound 0.01 µM,0.708
same,relative viability,201T; first compound 0.03162 µM,0.683
same,relative viability,201T; first compound 0.1 µM,0.69
same,relative viability,201T; first compound 0.3162 µM,0.721
same,relative viability,201T; first compound 1 µM,0.701
same,relative viability,HCC-44; first compound 0.01 µM,1.04
same,relative viability,HCC-44; first compound 0.03162 µM,1.06
same,relative viability,HCC-44; first compound 0.1 µM,1.02
same,relative viability,HCC-44; first compound 0.3162 µM,1.04
same,relative viability,HCC-44; first compound 1 µM,1.03
same,relative viability,LU99A; first compound 0.01 µM,0.561
same,relative viability,LU99A; first compound 0.03162 µM,0.576
same,relative viability,LU99A; first compound 0.1 µM,0.562
same,relative viability,LU99A; first compound 0.3162 µM,0.501
same,relative viability,LU99A; first compound 1 µM,0.541
same,relative viability,A-427; first compound 0.01 µM,0.869
same,relative viability,A-427; first compound 0.03162 µM,0.775
same,relative viability,A-427; first compound 0.1 µM,0.747
same,relative viability,A-427; first compound 0.3162 µM,0.812
same,relative viability,A-427; first compound 1 µM,0.695
same,relative viability,NCI-H596; first compound 0.01 µM,0.758
same,relative viability,NCI-H596; first compound 0.03162 µM,0.866
same,relative viability,NCI-H596; first compound 0.1 µM,0.831
same,relative viability,NCI-H596; first compound 0.3162 µM,0.711
same,relative viability,NCI-H596; first compound 1 µM,0.717
same,relative viability,PC-14; first compound 0.01 µM,0.843
same,relative viability,PC-14; first compound 0.03162 µM,0.744
same,relative viability,PC-14; first compound 0.1 µM,0.745
same,relative viability,PC-14; first compound 0.3162 µM,0.775
same,relative viability,PC-14; first compound 1 µM,0.832
same,relative viability,SW 900; first compound 0.03162 µM,0.922
same,relative viability,SW 900; first compound 0.1 µM,0.949
same,relative viability,SW 900; first compound 0.3162 µM,0.858
same,relative viability,SW 900; first compound 1 µM,0.82
same,relative viability,COR-L23; first compound 0.01 µM,0.617
same,relative viability,COR-L23; first compound 0.03162 µM,0.614
same,relative viability,COR-L23; first compound 0.1 µM,0.552
same,relative viability,COR-L23; first compound 0.3162 µM,0.633
same,relative viability,COR-L23; first compound 1 µM,0.655
same,relative viability,LC-2-ad; first compound 0.01 µM,0.982
same,relative viability,LC-2-ad; first compound 0.03162 µM,0.877
same,relative viability,LC-2-ad; first compound 0.1 µM,0.965
same,relative viability,LC-2-ad; first compound 0.3162 µM,0.899
same,relative viability,LC-2-ad; first compound 1 µM,0.918
same,relative viability,LK-2; first compound 0.01 µM,0.808
same,relative viability,LK-2; first compound 0.03162 µM,0.807
same,relative viability,LK-2; first compound 0.1 µM,0.957
same,relative viability,LK-2; first compound 0.3162 µM,0.515
same,relative viability,LK-2; first compound 1 µM,0.902
same,relative viability,H3255; first compound 0.01 µM,0.548
same,relative viability,H3255; first compound 0.03162 µM,0.691
same,relative viability,H3255; first compound 0.1 µM,0.675
same,relative viability,H3255; first compound 0.3162 µM,0.703
same,relative viability,H3255; first compound 1 µM,0.552
same,relative viability,NCI-H460; first compound 0.01 µM,0.104
same,relative viability,NCI-H460; first compound 0.03162 µM,0.127
same,relative viability,NCI-H460; first compound 0.1 µM,0.185
same,relative viability,NCI-H460; first compound 0.3162 µM,0.197
same,relative viability,NCI-H460; first compound 1 µM,0.12
